Results on 12 compounds are retold here after PMC6268896, “Two New Diterpenoids from the Buds of Wikstroemia chamaedaphne” (Molecules, 2012).

The subject of experiment [1] is MCF-7 (breast cancer) cells. Put plainly: MTT cytotoxicity assay, MCF-7. It counts as cell-based, human. The note with it: MCF-7, MTT, 48 h, read-out: IC50 against MCF-7. Here is the method: (§1) Compounds 1–10 were evaluated for their cytotoxic activities against five human cancer cell lines, HL-60 (human myeloid leukemia), SMMC-7721 (hepatocellular carcinoma), A549 (lung cancer), MCF-7 (breast cancer), and SW480 (colon cancer), and one human normal cell line BEAS-2B (human bronchial epithelial) by the MTT method. DDP (cis-platin) and taxol were used as positive controls.
(§2) Five human cancer cell lines, human myeloid leukemia HL-60, hepatocellular carcinoma SMMC-7721, lung cancer A549, breast cancer MCF-7, and colon cancer SW480 cells, together with one human normal cell line BEAS-2B (human bronchial epithelial), were assayed. Cells were cultured in RPMI-1640 or in DMEM medium (Hyclone, USA), supplemented with 10% fetal bovine serum (Hyclone, USA) in 5% CO2 at 37 °C. The antiproliferative assay was performed according to the MTT (3-(4,5-dimethylthiazol-2-yl)-2,5-diphenyl tetrazolium bromide) method in 96-well microplates, as reported previously, with slight modification. Briefly, 100 μL of adherent cells was seeded into each well of 96-well cell culture plates and allowed to adhere for 12 h before addition of test compounds, while suspended cells were seeded just before the addition of the drug with initial density of 1 × 10^5 cells/mL. Each cancer cell line was exposed to the tested compound at concentrations of 0.0625, 0.32, 1.6, 8, and 40 μM in triplicates for 48 h. Wells with DMSO were used as negative controls, and DDP (cis-platin, Sigma, USA) and taxol were used as a positive control. After compound treatment, cell viability was detected by a Bio-Rad 680 at λ = 595 nm and a cell growth curve was graphed. IC50 values were calculated by Reed and Muench’s method.
(In general: Tetrazolium dyes change colour on reduction, which living cells bring about.)

Experiment [2] concerns SMMC-7721 (hepatocellular carcinoma) cells. Put plainly: MTT cytotoxicity assay, SMMC-7721. In kind it is cell-based, human. The note with it: SMMC-7721, MTT, 48 h, read-out: IC50 against SMMC-7721. How it is done: as §1, §2
The test system of another experiment is A549 (lung cancer) cells. Briefly: MTT cytotoxicity assay, A549. The note with it: A-549, MTT, 48 h, read-out: IC50 against A-549. In kind it is cell-based, human. Here is the method: as §1, §2
Experiment [3] deals with HL-60 (human myeloid leukemia) cells. Briefly: MTT cytotoxicity assay, HL-60. The note with it: HL-60, MTT, 48 h, read-out: IC50 against HL-60. It counts as cell-based. How it is done: as §1, §2
Experiment [4] relates to BEAS-2B (human bronchial epithelial) cells. Put plainly: MTT cytotoxicity assay, BEAS-2B normal cell line. The settings on record: BEAS-2B human normal cell line, 48 h, read-out: IC50 against BEAS-2B. It counts as cell-based. Here is the method: as §1, §2
Experiment [5] concerns SW480 (colon cancer) cells. Put plainly: MTT cytotoxicity assay, SW480. It counts as cell-based, human. The settings on record: 48 h, read-out: IC50 against SW480. Here is the method: as §1, §2

Structures are written as SMILES. Where two headings read alike, the source gives them in different places. Where only a bound is given, the exact number is not on record here.

`C=C(C)[C@]12C[C@@H](C)[C@@]34OC5(CCCCCCC[C@@H](C)[C@H]6[C@H](C)[C@H](O)[C@@](O)([C@H](O)[C@@]7(COC(=O)/C=C/c8ccccc8)O[C@H]7[C@H]3[C@H]1O5)[C@@H]64)O2` [Compound 1, wikstroelide Q]: the IC50 in experiment [1] (Homo sapiens, MCF7) was more than 40 µM; in experiment [2] (Homo sapiens) it was more than 40 µM; in the experiment on A549 (lung cancer) cells (Homo sapiens, A549), more than 40 µM; in experiment [3] (Homo sapiens), 26.4 µM; in experiment [4], more than 40 µM; in experiment [5] (Homo sapiens), more than 40 µM.

For the compound `C=C(C)[C@]12C[C@@H](C)[C@@]34OC5(CCCCCCC[C@H](C)[C@H]6[C@H](C)[C@H](OC(=O)c7ccccc7)[C@@](O)([C@H](O)[C@@]7(CO)O[C@H]7[C@H]3[C@H]1O5)[C@@H]64)O2` [Compound 2, pimelea factors P2], the IC50 is 12.8 µM in experiment [1] (Homo sapiens, MCF7); 17.5 µM in experiment [2] (Homo sapiens); 12.1 µM with A549 (lung cancer) cells (Homo sapiens, A549); 13.8 µM in experiment [3] (Homo sapiens); 17.4 µM in experiment [4]; 15.9 µM in experiment [5] (Homo sapiens).

As for `C=C(C)[C@@]12C[C@@H](C)[C@@]34OC5(CCCCCCC[C@@H](C)[C@H]6[C@H](C)[C@H](OC(=O)c7ccccc7)[C@@](O)([C@H](O)[C@@]7(CO)O[C@H]7[C@H]3[C@H]1O5)[C@@H]64)O2` [Compound 3, pimelea factor P3], the IC50 in experiment [1] (Homo sapiens, MCF7) turned out to be 14 µM; in experiment [2] (Homo sapiens), 14.9 µM; in the experiment with A549 (lung cancer) cells (Homo sapiens, A549), 11.1 µM; in experiment [3] (Homo sapiens), 13.3 µM; in experiment [4], 15.4 µM; in experiment [5] (Homo sapiens), 14.4 µM.

On to `CC(=O)O[C@@]12C[C@@H](C)[C@@]3(O)[C@@H](C=C(CO)C[C@]4(O)C(=O)C(C)=C[C@@H]34)[C@@H]1C2(C)C` [Compound 4, prostratin], for which the IC50 in experiment [1] (Homo sapiens, MCF7) was found to be 16 µM; in experiment [2] (Homo sapiens), 18.1 µM; in the experiment with A549 (lung cancer) cells (Homo sapiens, A549), 12.6 µM; in experiment [3] (Homo sapiens) it was 15.6 µM; in experiment [4], 17.4 µM; in experiment [5] (Homo sapiens), 13.3 µM.

As to `CCCCC/C=C/C=C/C(=O)O[C@@H]1[C@@H](C)[C@@]2(O)[C@@H](C=C(CO)C[C@]3(O)C(=O)C(C)=C[C@@H]23)[C@@H]2C(C)(C)[C@]12OC(C)=O` [Compound 5, prostratin Q], the IC50 in experiment [1] (Homo sapiens, MCF7) was found to be 15 µM; in experiment [2] (Homo sapiens), 15.1 µM; with A549 (lung cancer) cells (Homo sapiens, A549), 15.8 µM; in experiment [3] (Homo sapiens), 15.8 µM; in experiment [4], 16.6 µM; in experiment [5] (Homo sapiens), 14.8 µM.

For the compound `COc1cc([C@H]2OC[C@H]3[C@@H]2CO[C@H]3c2ccc(O)c(OC)c2)ccc1O` [Compound 6, (+)-epipioresinol], the IC50 in experiment [1] (Homo sapiens, MCF7) is more than 40 µM; in experiment [2] (Homo sapiens), more than 40 µM; in the experiment with A549 (lung cancer) cells (Homo sapiens, A549), more than 40 µM; in experiment [3] (Homo sapiens) it was more than 40 µM; in experiment [4], more than 40 µM; in experiment [5] (Homo sapiens), more than 40 µM.

Turning to `COc1cc([C@H]2c3cc(O)c(OC)cc3C[C@@H](CO)[C@@H]2CO)ccc1O` [Compound 7, (+)-isolariciresinol], the IC50 is more than 40 µM in experiment [1] (Homo sapiens, MCF7); more than 40 µM in experiment [2] (Homo sapiens); more than 40 µM in the experiment on A549 (lung cancer) cells (Homo sapiens, A549); more than 40 µM in experiment [3] (Homo sapiens); more than 40 µM in experiment [4]; more than 40 µM in experiment [5] (Homo sapiens).

With `COc1cc(C[C@@H]2CO[C@@H](c3ccc(O)c(OC)c3)[C@@H]2CO)ccc1O` [Compound 8, (−)-lariciresinol], the IC50 is more than 40 µM in experiment [1] (Homo sapiens, MCF7); more than 40 µM in experiment [2] (Homo sapiens); more than 40 µM in the experiment on A549 (lung cancer) cells (Homo sapiens, A549); more than 40 µM in experiment [3] (Homo sapiens); more than 40 µM in experiment [4]; more than 40 µM in experiment [5] (Homo sapiens).

For the compound `O=C(c1ccc2c(c1)OCO2)[C@H]1CO[C@H](c2ccc3c(c2)OCO3)[C@H]1CO` [Compound 9, (+)-epi-sesaminone], the IC50 in experiment [1] (Homo sapiens, MCF7) was more than 40 µM; in experiment [2] (Homo sapiens), more than 40 µM; in the experiment on A549 (lung cancer) cells (Homo sapiens, A549) it was more than 40 µM; in experiment [3] (Homo sapiens), more than 40 µM; in experiment [4] it was more than 40 µM; in experiment [5] (Homo sapiens), more than 40 µM.

Take `COc1ccc(C[C@@H]2COC(=O)[C@H]2Cc2ccc(OC)c(O)c2)cc1O` [Compound 10, prestegane B]: the IC50 is more than 40 µM in experiment [1] (Homo sapiens, MCF7); more than 40 µM in experiment [2] (Homo sapiens); more than 40 µM with A549 (lung cancer) cells (Homo sapiens, A549); more than 40 µM in experiment [3] (Homo sapiens); more than 40 µM in experiment [4]; more than 40 µM in experiment [5] (Homo sapiens).

In the case of `N.N.[Cl][Pt][Cl]` [DDP ( cis-platin), cis-platin, reference compound], the IC50 is 16.9 µM in experiment [1]; 16.2 µM in experiment [2]; 14.1 µM in the experiment with A549 (lung cancer) cells; 1.25 µM in experiment [3]; 8.61 µM in experiment [4]; 18.1 µM in experiment [5].

On to `CC(=O)O[C@H]1C(=O)[C@@]2(C)[C@H]([C@H](OC(=O)c3ccccc3)[C@]3(O)C[C@H](OC(=O)[C@H](O)[C@@H](NC(=O)c4ccccc4)c4ccccc4)C(C)=C1C3(C)C)[C@]1(OC(C)=O)CO[C@@H]1C[C@@H]2O` [Taxol, taxol, reference compound], for which the IC50 was less than 0.008 µM in experiment [1] (Homo sapiens, MCF7); less than 0.008 µM in experiment [2] (Homo sapiens); less than 0.008 µM with A549 (lung cancer) cells (Homo sapiens, A549); less than 0.008 µM in experiment [3] (Homo sapiens); 5 µM in experiment [4]; less than 0.008 µM in experiment [5] (Homo sapiens).

By IC50 is commonly meant the midpoint of a concentration-inhibition curve.
